Patent EP4671247A1, “SUBSTITUTED PYRAZOLOPYRIMIDINE COMPOUND AND PHARMACEUTICAL USE THEREOF” (Japan Tobacco Inc., priority 2023, dated 2024)
Where two headings read alike, the source gives them in different places.

Target: T1, NLRP3 inflammasome (Homo sapiens, UniProt Q96P20)
T1 construct: host or cells: THP1-Null cells (PMA-differentiated, LPS-primed, nigericin-stimulated)
Experiment: Evaluation of NLRP3 inflammasome inhibitory activity (inhibition of IL-1β production in LPS/Nigericin-stimulated THP1-Null cells, AlphaLISA)
Assay type: cell-based
Conditions: for IC50: PMA, 1 µg/mL Lipopolysaccharides 3 hours, Nigericin 7.5 µmol/L 1.5 hours
Method: The NLRP3 inflammasome inhibitory activity of test compounds were evaluated on the basis of the inhibitory activity of the IL-1β production in THP1-Null cells (Product Number: thp-null, InvivoGen).
The supernatant of the culture was removed, and thereto was added media for assay (25 µL/well) containing 1 µg/mL Lipopolysaccharides (Product Number: L2654, Sigma-Aldrich (registered trademark)). […] The supernatant of the culture was removed. […] A solution containing a test compound (20 µL/well) was added to test compound-setting wells. […] The supernatant of the culture was cryonically stored (set at -20°C) until measurement of IL-1β.
The amount of IL-1β in the culture supernatant was quantitated with AlphaLISA (registered trademark) Human IL-1β Detection Kit (Product Number: AL220C, Perkin Elmer). Fluorescence intensity was measured with a microplate reader EnSpier (Model number: 2300-00J, Perkin Elmer) or EnSight (Model number: HH34000000, Perkin Elmer) according to procedure manuals attached thereto. Inhibition rates of the test compound-setting wells were calculated on the basis of 100% for the blank-setting wells and 0% for the control-setting wells.

[1] = IL-1β production in THP1-Null cells, read-out: IC50
[2] = IC50, IL-1β production in THP1-Null cells
[3] = IL-1β production in THP1-Null cells

T1 sequence (Q96P20 whole entry): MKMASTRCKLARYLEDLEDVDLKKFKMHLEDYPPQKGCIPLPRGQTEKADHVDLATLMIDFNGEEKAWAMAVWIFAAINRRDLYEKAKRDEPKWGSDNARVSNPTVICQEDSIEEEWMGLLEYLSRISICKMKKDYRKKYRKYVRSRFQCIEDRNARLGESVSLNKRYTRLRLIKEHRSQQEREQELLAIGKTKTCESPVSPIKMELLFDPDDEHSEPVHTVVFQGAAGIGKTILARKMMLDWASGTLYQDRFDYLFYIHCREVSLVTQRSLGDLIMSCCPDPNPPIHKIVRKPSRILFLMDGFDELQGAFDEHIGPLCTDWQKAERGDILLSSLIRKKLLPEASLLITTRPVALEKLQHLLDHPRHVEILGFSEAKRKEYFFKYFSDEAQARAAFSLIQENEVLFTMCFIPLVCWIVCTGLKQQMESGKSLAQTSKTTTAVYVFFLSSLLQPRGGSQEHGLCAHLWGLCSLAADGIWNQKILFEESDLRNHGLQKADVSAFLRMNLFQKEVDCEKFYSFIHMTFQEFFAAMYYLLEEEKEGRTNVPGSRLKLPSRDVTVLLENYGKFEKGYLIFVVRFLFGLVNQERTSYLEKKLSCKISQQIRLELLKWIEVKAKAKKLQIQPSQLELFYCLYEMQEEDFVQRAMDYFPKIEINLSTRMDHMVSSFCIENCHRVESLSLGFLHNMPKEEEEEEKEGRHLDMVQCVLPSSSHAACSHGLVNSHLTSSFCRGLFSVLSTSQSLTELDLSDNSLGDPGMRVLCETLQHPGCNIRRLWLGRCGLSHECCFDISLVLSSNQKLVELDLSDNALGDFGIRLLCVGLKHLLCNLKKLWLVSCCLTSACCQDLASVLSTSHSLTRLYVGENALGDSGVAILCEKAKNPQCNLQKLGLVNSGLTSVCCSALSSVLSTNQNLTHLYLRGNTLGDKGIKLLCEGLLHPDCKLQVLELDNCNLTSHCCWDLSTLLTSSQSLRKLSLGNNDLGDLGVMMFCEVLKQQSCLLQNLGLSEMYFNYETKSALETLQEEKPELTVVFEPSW

Work on Cc1cc(C2CC2)cc(C)c1-n1cc2c(=O)[nH]c(C34COC(C)(C3)C4)nc2n1 [Example 52] yielded an IC50 [1] of 40 nM.

For COc1cc(C)c(-n2cc3c(=O)[nH]c(C4CC4)nc3n2)c(C)c1 [Example 53], the IC50 [1] was 140 nM.

For Cc1cc(OC(F)F)cc(C)c1-n1cc2c(=O)[nH]c(C3CC3)nc2n1 [Example 54], the IC50 [1] was 33 nM.

Molecule Cc1cc(C(F)(F)F)cc(C)c1-n1cc2c(=O)[nH]c(C3CC3)nc2n1 [Example 55] has an IC50 [1] of 31 nM.

With COCc1cc(C2CC2)cc(C)c1-n1cc2c(=O)[nH]c(C3CC3)nc2n1 [Example 58] the IC50 [1] was 36 nM.

Cc1nn(C2CCC2)c(C)c1-n1cc2c(=O)[nH]c(C3CC3)nc2n1 [Example 59] showed an IC50 [1] of 1700 nM.

Cc1cc(Br)cc(C)c1-n1cc2c(=O)[nH]c(C34CC(C3)C4)nc2n1 [Example 60] was tested, and the IC50 [2] was 60 nM.

In the case of Cc1c(-n2cc3c(=O)[nH]c(C4CC4)nc3n2)c(C(F)(F)F)nn1C(C)C [Example 61], the IC50 [1] is reported as 460 nM.

With Cc1cc(Br)cc(C)c1-n1cc2c(=O)[nH]c(Cn3cccn3)nc2n1 [Example 62] the IC50 [1] was 230 nM.

Cc1cc(OC(F)F)cc(C)c1-n1cc2c(=O)[nH]c(C3CCOCC3)nc2n1 [Example 64] was tested, and the IC50 [1] was 22 nM.

In the case of Cc1c(-n2cc3c(=O)[nH]c(C4CCCC4)nc3n2)c(C(F)(F)F)nn1C(C)C [Example 65], the IC50 [1] is reported as 300 nM.

Molecule Cc1cc(Br)cc(C)c1-n1cc2c(=O)[nH]c(CN3CCCC3=O)nc2n1 [Example 66] has an IC50 [1] of 430 nM.

COc1cc(C)c(-n2cc3c(=O)[nH]c(COCc4ccccc4)nc3n2)c(C)c1 [Example 67] was tested, and the IC50 [1] was 780 nM.

Cc1cc(Br)cc(C)c1-n1cc2c(=O)[nH]c(C3(F)CCC3)nc2n1 [Example 68] showed an IC50 [1] of 76 nM.

For Cc1cc(C2CC2)cc(C)c1-n1cc2c(=O)[nH]c(C3(F)CCC3)nc2n1 [Example 69], the IC50 [1] was 67 nM.

Cc1cc(Br)cc(C)c1-n1cc2c(=O)[nH]c(C(C)(C)F)nc2n1 [Example 70] was tested, and the IC50 [1] was 130 nM.

In the case of Cc1cc(Br)cc(C)c1-n1cc2c(=O)[nH]c(C3CCCCC3)nc2n1 [Example 71], the IC50 [1] is reported as 11 nM.

For CC(=O)c1c2c(=O)[nH]c(C3COC3)nc2nn1-c1c(C)cc(Br)cc1C [Example 72], the IC50 [1] was 57 nM.

With Cc1cc(C2CC2)cc(C)c1-n1cc2c(=O)[nH]c(C3(F)CCOCC3)nc2n1 [Example 73] the IC50 [1] was 21 nM.

Cc1cc(Br)cc(C)c1-n1cc2c(=O)[nH]c(COCCC(C)(C)O)nc2n1 [Example 74] was tested, and the IC50 [1] was 190 nM.

Molecule Cc1cc(C2CC2)cc(OC(F)F)c1-n1cc2c(=O)[nH]c(C3CC3)nc2n1 [Example 75] has an IC50 [1] of 11 nM.

For COCc1cc(OC(F)F)cc(C)c1-n1cc2c(=O)[nH]c(C3CC3)nc2n1 [Example 76], the IC50 [1] was 82 nM.

Molecule Cc1cc(Br)cc(C)c1-n1cc2c(=O)[nH]c(C3COC3)nc2n1 [Example 77] has an IC50 [1] of 14 nM.

Cc1cc(C(C)(F)F)cc(C)c1-n1cc2c(=O)[nH]c(C3CC3)nc2n1 [Example 80] was tested, and the IC50 [1] was 29 nM.

For Cc1cc(Br)cc(C)c1-n1cc2c(=O)[nH]c(C3CCOCC3)nc2n1 [Example 81], the IC50 [1] was 4 nM.

Cc1cc(Br)cc(C)c1-n1nc2nc(C3CCOCC3)[nH]c(=O)c2c1C(F)F [Example 82] showed an IC50 [1] of 16 nM.

With Cc1cc(C2CC2)cc(C)c1-n1nc2nc(C3CC3)[nH]c(=O)c2c1CO [Example 83, 6-cyclopropyl-2-(4-cyclopropyl-2,6-dimethylphenyl)-3-(hydroxymethyl)-2,5-dihydro-4H-pyrazolo[3,4-d]pyrimidin-4-one] the IC50 [1] was 24 nM.

Molecule Cc1cc(C2CC2)cc(C)c1-n1nc2nc(C3CC3)[nH]c(=O)c2c1CF [Example 84] has an IC50 [1] of 15 nM.

Cc1cc(C(C)(C)F)cc(C)c1-n1cc2c(=O)[nH]c(C3CC3)nc2n1 [Example 85] gave an IC50 [2] of 29 nM.

With Cc1cc(C2CC2)cc(C)c1-n1nc2nc(C3CC3)[nH]c(=O)c2c1C#N [Example 87] the IC50 [1] was 11 nM.

With COCc1c2c(=O)[nH]c(C3CC3)nc2nn1-c1c(C)cc(C2CC2)cc1C [Example 88, 6-cyclopropyl-2-(4-cyclopropyl-2,6-dimethylphenyl)-3-(methoxymethyl)-2,5-dihydro-4H-pyrazolo[3,4-d]pyrimidin-4-one] the IC50 [1] was 18 nM.

Work on Cc1cc(OC(F)F)cc(C)c1-n1cc2c(=O)[nH]c(C3CC(C)OC(C)C3)nc2n1 (stereo not drawn) [Example 89] yielded an IC50 [1] of 450 nM.

Cc1cc(OC(F)F)cc(C)c1-n1cc2c(=O)[nH]c(C3CCN(C)CC3)nc2n1 [Example 90] was tested, and the IC50 [1] was 68 nM.

In the case of Cc1cc(Br)cc(C)c1-n1cc2c(=O)[nH]c([C@@H]3C[C@@H]3F)nc2n1 [Example 91], the IC50 [3] is reported as 8 nM.

With Cc1cc(Br)cc(C)c1-n1cc2c(=O)[nH]c(C3CC3F)nc2n1 (stereo not drawn) [Example 92] the IC50 [3] was 7 nM.

COc1cc(C)c(-n2cc3c(=O)[nH]c(C45CC(CO)(CO4)C5)nc3n2)c(C)c1 [Example 94] was tested, and the IC50 [1] was 220 nM.

Work on Cc1cc(C2CC2)cc(C)c1-n1cc2c(=O)[nH]c(C34CC(CO)(CO3)C4)nc2n1 [Example 95] yielded an IC50 [1] of 42 nM.

Molecule Cc1cc(Br)cc(C)c1-n1cc2c(=O)[nH]c(COCCO)nc2n1 [Example 96] has an IC50 [1] of 270 nM.

Cc1cc(Br)cc(C)c1-n1cc2c(=O)[nH]c(C3(F)CCOCC3)nc2n1 [Example 97] was tested, and the IC50 [1] was 24 nM.

For CCOCCc1nc2nn(-c3c(C)cc(Br)cc3C)cc2c(=O)[nH]1 [Example 98], the IC50 [1] was 98 nM.

For COCCc1nc2nn(-c3c(C)cc(C4CC4)cc3C)cc2c(=O)[nH]1 [Example 99], the IC50 [1] was 43 nM.

Cc1cc(C2CC2)cc(C)c1-n1cc2c(=O)[nH]c(CCF)nc2n1 [Example 101] was tested, and the IC50 [1] was 24 nM.

With Cc1cc(Br)cc(C)c1-n1cc2c(=O)[nH]c(C3=CCOCC3)nc2n1 [Example 102] the IC50 [1] was 8 nM.

Work on Cc1cc(C2CC2(F)F)cc(C)c1-n1cc2c(=O)[nH]c(C3CC3(F)F)nc2n1 (stereo not drawn) [Example 103] yielded an IC50 [1] of 64 nM.

Work on Cc1cc(C2CC2)cc(C)c1-n1cc2c(=O)[nH]c(CO)nc2n1 [Example 105] yielded an IC50 [1] of 13 nM.

With Cc1cc(C2CC2)cc(C)c1-n1cc2c(=O)[nH]c(CCO)nc2n1 [Example 106] the IC50 [1] was 28 nM.

Molecule Cc1cc(C(C)(F)F)cc(C)c1-n1cc2c(=O)[nH]c(C3(F)CCOCC3)nc2n1 [Example 107] has an IC50 [1] of 15 nM.

Cc1cc(Br)cc(C)c1-n1cc2c(=O)[nH]c(C3(F)COC3)nc2n1 [Example 108] was tested, and the IC50 [1] was 49 nM.

With Cc1cc(C(C)(C)F)cc(C)c1-n1cc2c(=O)[nH]c(C3(F)CCOCC3)nc2n1 [Example 109] the IC50 [1] was 17 nM.

With Cc1cc(C2CC2)cc(F)c1-n1cc2c(=O)[nH]c(C3(F)CCOCC3)nc2n1 [Example 110] the IC50 [1] was 19 nM.

With COc1cc(C2CC2)cc(C)c1-n1cc2c(=O)[nH]c(C3(F)CCOCC3)nc2n1 [Example 111] the IC50 [1] was 15 nM.

With Cc1cc(Br)cc(C)c1-n1cc2c(=O)[nH]c(CN3CCCCC3)nc2n1 [Example 112] the IC50 [1] was 140 nM.

With Cc1cc(C(C)(F)F)cc(C)c1-n1cc2c(=O)[nH]c(C3(F)COC3)nc2n1 [Example 116] the IC50 [1] was 280 nM.

Cc1cc(C2CC2)cc(C)c1-n1cc2c(=O)[nH]c(C3=CCOCC3)nc2n1 [Example 131] was tested, and the IC50 [1] was 5 nM.

Cc1cc(Br)cc(C)c1-n1cc2c(=O)[nH]c(COC(F)F)nc2n1 [Example 132] showed an IC50 [1] of 24 nM.

Cc1cc(OC(F)F)cc(C)c1-n1cc2c(=O)[nH]c(C3=CCOCC3)nc2n1 [Example 135] gave an IC50 [1] of 33 nM.

Cc1cc(OC(F)F)cc(C)c1-n1cc2c(=O)[nH]c(C3(F)CCOCC3)nc2n1 [Example 136] was tested, and the IC50 [1] was 49 nM.

Cc1cc(C2CC2)cc(C)c1-n1cc2c(=O)[nH]c(COC(F)F)nc2n1 [Example 145] gave an IC50 [1] of 13 nM.

In the case of Cc1cc(OC(F)F)cc(C)c1-n1cc2c(=O)[nH]c(COC(F)F)nc2n1 [Example 148], the IC50 [1] is reported as 61 nM.

For Cc1cc(C(C)(F)F)cc(C)c1-n1cc2c(=O)[nH]c(C3=CCOCC3)nc2n1 [Example 153], the IC50 [1] was 17 nM.

In the case of Cc1cc(OC(F)F)cc(C)c1-n1cc2c(=O)[nH]c(C3(F)CC3)nc2n1 [Example 159], the IC50 [1] is reported as 57 nM.

With Cc1cc(Br)cc(C)c1-n1cc2c(=O)[nH]c(CC3CC3)nc2n1 [Example 161] the IC50 [1] was 10 nM.

Cc1cc(C(C)(F)F)cc(C)c1-n1cc2c(=O)[nH]c(C3(F)CC3)nc2n1 [Example 162] gave an IC50 [1] of 57 nM.

In the case of Cc1cc(OC(F)F)cc(C)c1-n1cc2c(=O)[nH]c(CC3CC3)nc2n1 [Example 164], the IC50 [1] is reported as 67 nM.

Molecule Cc1cc(OC(F)F)cc(C)c1-n1cc2c(=O)[nH]c(C3=COCC3)nc2n1 [Example 175] has an inhibition at 0.002 µM (test compound at 0.002 µM, IL-1β production in THP1-Null cells) of 54%.

CCc1nc2nn(-c3c(C)cc(OC(F)F)cc3C)cc2c(=O)[nH]1 [Example 180] was tested, and the IC50 [1] was 20 nM.

CCc1nc2nn(-c3c(C)cc(C(C)(F)F)cc3C)cc2c(=O)[nH]1 [Example 181] gave an IC50 [1] of 18 nM.

In the case of Cc1cc(Br)cc(C)c1-n1cc2c(=O)[nH]c([C@H]3CCOCCO3)nc2n1 [Example 185], the IC50 [1] is reported as 23 nM.

Molecule Cc1cc(Br)cc(C)c1-n1cc2c(=O)[nH]c([C@@H]3CCOCCO3)nc2n1 [Example 186] has an IC50 [1] of 87 nM.

CCc1nc2nn(-c3c(C)cc(C4(F)CC4)cc3C)cc2c(=O)[nH]1 [Example 192] showed an IC50 [1] of 20 nM.

For Cc1cc(C2CC2)cc(C)c1-n1cc2c(=O)[nH]c(C(=O)N(C)C)nc2n1 [Example 195], the IC50 [1] was 180 nM.

CNC(=O)c1nc2nn(-c3c(C)cc(C4CC4)cc3C)cc2c(=O)[nH]1 [Example 196] showed an IC50 [1] of 22 nM.
